Patent US20230278972A1, “SUBSTITUTED HALOALKYL SULFONANILIDE HERBICIDES” (FMC Corporation, priority 2020, published 2023)

What was measured:
Assay type in all cases: in vivo
[1] = system: ragweed (common ragweed, Ambrosia artemisiifolia); assay: Test A postemergence, ragweed; details: Postemergence, 0 to 100 scale (0 no effect, 100 complete control); for Plant response rating, Ragweed: 125 g ai/ha; for Ragweed plant response rating: 500 g ai/ha, visual injury vs untreated controls after approx. 10 days
In short: (§1)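 Pots: loam soil/sand blend. Pre: directed soil spray at planting. Post: plants 2–10 cm, 1–2 leaf stage. Formulation: non-phytotoxic solvent + surfactant.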

[2] = system: blackgrass (Alopecurus myosuroides); assay: Test A postemergence, blackgrass; details: Postemergence, 0 to 100 scale (0 no effect, 100 complete control); for Plant response rating, Blackgrass: 125 g ai/ha; for Blackgrass plant response rating: 500 g ai/ha, visual injury vs untreated controls after approx. 10 days
In short: as §1

[3] = system: Foxtail, Giant (giant foxtail, Setaria faberi); assay: Test A preemergence, Foxtail, Giant; details: Preemergence, 0 to 100 scale (0 no effect, 100 complete control)
In short: as §1

[4] = system: Foxtail, Giant (giant foxtail, Setaria faberi); assay: Test A postemergence, Foxtail, Giant; details: Postemergence, 0 to 100 scale (0 no effect, 100 complete control); for Plant response rating, Foxtail, Giant: 125 g ai/ha; for Foxtail, Giant plant response rating: 500 g ai/ha, visual injury vs untreated controls after approx. 10 days
In short: as §1

[5] = system: Ryegrass, Italian (Italian ryegrass, Lolium multiflorum); assay: Test A preemergence, Ryegrass, Italian; details: Preemergence, 0 to 100 scale (0 no effect, 100 complete control)
In short: as §1

[6] = system: Ryegrass, Italian (Italian ryegrass, Lolium multiflorum); assay: Test A postemergence, Ryegrass, Italian; details: Postemergence, 0 to 100 scale (0 no effect, 100 complete control); for Plant response rating, Ryegrass, Italian: 125 g ai/ha; for Ryegrass, Italian plant response rating: 500 g ai/ha, visual injury vs untreated controls after approx. 10 days
In short: as §1

[7] = system: wheat (Triticum aestivum); assay: Test A postemergence, wheat; details: Postemergence, 0 to 100 scale (0 no effect, 100 complete control); for Plant response rating, Wheat: 125 g ai/ha; for Wheat plant response rating: 500 g ai/ha, visual injury vs untreated controls after approx. 10 days
In short: (§2)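 Postemergence ratings come from foliar sprays onto one- to two-leaf plants of 2 to 10 cm grown in loam/sand; preemergence ratings come from a directed spray onto the soil of newly seeded pots. Formulation was a surfactant-containing non-phytotoxic solvent blend.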

[8] = system: barnyardgrass (Echinochloa crus-galli); assay: Test A postemergence, barnyardgrass; details: Postemergence, 0 to 100 scale (0 no effect, 100 complete control); for Plant response rating, Barnyardgrass: 125 g ai/ha; for Barnyardgrass plant response rating: 500 g ai/ha, visual injury vs untreated controls after approx. 10 days
In short: as §2

kochia (Bassia scoparia) [9] = assay: Test A preemergence, kochia; details: Preemergence, 0 to 100 scale (0 no effect, 100 complete control)
In short: as §1

[10] = system: ragweed (common ragweed, Ambrosia artemisiifolia); assay: Test A preemergence, ragweed; details: Preemergence, 0 to 100 scale (0 no effect, 100 complete control)
In short: as §1

corn (Zea mays) = assay: Test A postemergence, corn; details: Postemergence, 0 to 100 scale (0 no effect, 100 complete control); for Plant response rating, Corn: 125 g ai/ha; for Corn plant response rating: 500 g ai/ha, visual injury vs untreated controls after approx. 10 days
In short: as §1

kochia (Bassia scoparia) [11] = assay: Test A postemergence, kochia; details: Postemergence, 0 to 100 scale (0 no effect, 100 complete control); for Plant response rating, Kochia: 125 g ai/ha; for Kochia plant response rating: 500 g ai/ha, visual injury vs untreated controls after approx. 10 days
In short: as §1

[12] = system: pigweed (Amaranthus retroflexus); assay: Test A preemergence, pigweed; details: 0 to 100 scale (0 no effect, 100 complete control)
In short: as §2

[13] = system: galium (catchweed bedstraw, Galium aparine); assay: Test A postemergence, galium; details: Postemergence, 0 to 100 scale (0 no effect, 100 complete control); for Plant response rating, Galium: 125 g ai/ha; for Galium plant response rating: 500 g ai/ha, visual injury vs untreated controls after approx. 10 days
In short: as §2

[14] = system: barnyardgrass (Echinochloa crus-galli); assay: Test A preemergence, barnyardgrass; details: Preemergence, 0 to 100 scale (0 no effect, 100 complete control)
In short: as §1

[15] = system: pigweed (Amaranthus retroflexus); assay: Test A postemergence, pigweed; details: Postemergence, 0 to 100 scale (0 no effect, 100 complete control); for Plant response rating, Pigweed: 125 g ai/ha; for Pigweed plant response rating: 500 g ai/ha, visual injury vs untreated controls after approx. 10 days
In short: as §1

[16] = 125 g ai/ha, visual injury, approx. 10 days

| SMILES | Plant response rating, Ragweed [1] | Ragweed plant response rating [1] | Plant response rating, Blackgrass [2] | Blackgrass plant response rating [2] | Plant response rating, Foxtail, Giant [3, 16] | Plant response rating, Foxtail, Giant ([3]; 500 g ai/ha) | Plant response rating, Foxtail, Giant [4] | Foxtail, Giant plant response rating [4] | Plant response rating, Ryegrass, Italian [5, 16] | Plant response rating, Ryegrass, Italian ([5]; 500 g ai/ha) | Plant response rating, Ryegrass, Italian [6] | Ryegrass, Italian plant response rating [6] | Plant response rating, Wheat [7] | Wheat plant response rating [7] | Plant response rating, Barnyardgrass [8] | Barnyardgrass plant response rating [8] | Plant response rating, Kochia (kochia (Bassia scoparia) [9]; [16]) | Plant response rating, Kochia (kochia (Bassia scoparia) [9]; 500 g ai/ha) | Plant response rating, Ragweed [10, 16] | Plant response rating, Ragweed ([10]; 500 g ai/ha) | also measured |
| --- | --- | --- | --- | --- | --- | --- | --- | --- | --- | --- | --- | --- | --- | --- | --- | --- | --- | --- | --- | --- | --- |
| CCN(CC)C(=O)c1cc(NS(=O)(=O)C(F)(F)F)c(C)cc1C [Compound 188] | 20 | 70 | 0 | 0 | 0 | 100 | 0 | 20 | 50 | 100 | 0 | 40 | 40 | 70 | 10 | 70 | 20 | 60 | 40 | 50 | Plant response rating, Corn (corn (Zea mays)): 10; Corn plant response rating (corn (Zea mays)): 30; Plant response rating, Kochia (kochia (Bassia scoparia) [11]): 0; Kochia plant response rating (kochia (Bassia scoparia) [11]): 0; Plant response rating, Pigweed [12, 16]: 50; Plant response rating, Pigweed ([12]; 500 g ai/ha): 90; Plant response rating, Galium [13]: 40; Galium plant response rating [13]: 50; Plant response rating, Barnyardgrass [14, 16]: 60; Plant response rating, Barnyardgrass ([14]; 500 g ai/ha): 90; Plant response rating, Pigweed [15]: 20; Pigweed plant response rating [15]: 80 |
| C#CCN(C)C(=O)c1cc(NS(=O)(=O)C(F)(F)F)c(C)cc1C [Compound 189] | 90 | 90 | 30 | 20 | 100 | 100 | 60 | 90 | 90 | 100 | 80 | 80 | 50 | 70 | 80 | 90 | 80 | 100 | 80 | 90 | Plant response rating, Corn (corn (Zea mays)): 20; Corn plant response rating (corn (Zea mays)): 80; Plant response rating, Kochia (kochia (Bassia scoparia) [11]): 20; Kochia plant response rating (kochia (Bassia scoparia) [11]): 80; Plant response rating, Pigweed [12, 16]: 90; Plant response rating, Pigweed ([12]; 500 g ai/ha): 100; Plant response rating, Galium [13]: 90; Galium plant response rating [13]: 90; Plant response rating, Barnyardgrass [14, 16]: 80; Plant response rating, Barnyardgrass ([14]; 500 g ai/ha): 100; Plant response rating, Pigweed [15]: 60; Pigweed plant response rating [15]: 90 |
| Cc1c(NS(=O)(=O)C(F)(F)F)cc(C(=O)N2CCCCC2)c(C)c1F [Compound 191] | 20 | 60 | 0 | 0 | 100 | 100 | 0 | 20 | 70 | 100 | 30 | 60 | 30 | 60 | 0 | 30 | 90 | 90 | 60 | 100 | Plant response rating, Corn (corn (Zea mays)): 0; Corn plant response rating (corn (Zea mays)): 10; Plant response rating, Kochia (kochia (Bassia scoparia) [11]): 0; Kochia plant response rating (kochia (Bassia scoparia) [11]): 20; Plant response rating, Pigweed [12, 16]: 100; Plant response rating, Pigweed ([12]; 500 g ai/ha): 100; Plant response rating, Galium [13]: 70; Galium plant response rating [13]: 90; Plant response rating, Barnyardgrass [14, 16]: 100; Plant response rating, Barnyardgrass ([14]; 500 g ai/ha): 100; Plant response rating, Pigweed [15]: 20; Pigweed plant response rating [15]: 70 |
| Cc1cc(C)c(C(=O)N2CCC3(CC2)OCCCO3)cc1NS(=O)(=O)C(F)(F)F [Compound 194] | 60 | 90 | 0 | 0 | 80 | 100 | 10 | 80 | 30 | 100 | 0 | 50 | 0 | 60 | 0 | 80 | 40 | 90 | 80 | 90 | Plant response rating, Corn (corn (Zea mays)): 0; Corn plant response rating (corn (Zea mays)): 0; Plant response rating, Kochia (kochia (Bassia scoparia) [11]): 20; Kochia plant response rating (kochia (Bassia scoparia) [11]): 40; Plant response rating, Pigweed [12, 16]: 90; Plant response rating, Pigweed ([12]; 500 g ai/ha): 100; Plant response rating, Galium [13]: 70; Galium plant response rating [13]: 90; Plant response rating, Barnyardgrass [14, 16]: 90; Plant response rating, Barnyardgrass ([14]; 500 g ai/ha): 90; Plant response rating, Pigweed [15]: 0; Pigweed plant response rating [15]: 50 |
| Cc1cc(C)c(C(=O)N2CCC3(CCCCC3)CC2)cc1NS(=O)(=O)C(F)(F)F [Compound 195] | 0 | 50 | 0 | 0 | 70 | 90 | 0 | 0 | 20 | 90 | 0 | 0 | 0 | 0 | 0 | 0 | 0 | 0 | 0 | 0 | Plant response rating, Corn (corn (Zea mays)): 20; Corn plant response rating (corn (Zea mays)): 0; Plant response rating, Kochia (kochia (Bassia scoparia) [11]): 0; Kochia plant response rating (kochia (Bassia scoparia) [11]): 0; Plant response rating, Pigweed [12, 16]: 60; Plant response rating, Pigweed ([12]; 500 g ai/ha): 80; Plant response rating, Galium [13]: 10; Galium plant response rating [13]: 20; Plant response rating, Barnyardgrass [14, 16]: 60; Plant response rating, Barnyardgrass ([14]; 500 g ai/ha): 90; Plant response rating, Pigweed [15]: 0; Pigweed plant response rating [15]: 0 |
